Among the data in US6281218A, “Benzimidazolone derivatives having mixed serotonin and dopamine receptors affinity” (Ingelheim Italia S.p.A., priority 1999, dated 2001) are Ki values, retold here.

In experiment [1] the target is T1, 5-HT1A receptor (Rattus norvegicus, UniProt P19327).
T1 construct: from tissue; host or cells: rat hippocampus (male Sprague-Dawley)
T1 sequence (P19327 1-422): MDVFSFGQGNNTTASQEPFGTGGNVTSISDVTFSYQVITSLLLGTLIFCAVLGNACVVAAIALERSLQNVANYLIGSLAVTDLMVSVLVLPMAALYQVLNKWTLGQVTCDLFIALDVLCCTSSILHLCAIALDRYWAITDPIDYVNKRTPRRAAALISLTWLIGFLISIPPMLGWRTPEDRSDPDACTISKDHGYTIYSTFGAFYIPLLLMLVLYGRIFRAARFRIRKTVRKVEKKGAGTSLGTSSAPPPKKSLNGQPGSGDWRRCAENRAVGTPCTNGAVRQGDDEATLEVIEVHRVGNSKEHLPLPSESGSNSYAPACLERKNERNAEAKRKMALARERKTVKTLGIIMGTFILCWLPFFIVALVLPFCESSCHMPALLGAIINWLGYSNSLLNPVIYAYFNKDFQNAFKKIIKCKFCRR
Briefly: 5-HT1A receptor binding, [3H]-8-OH-DPAT displacement. The note with it: rat hippocampus tissue, read-out: K1 (nM) for 5-HT1A (rat hippocampus tissue). The procedure: Male Sprague-Dawley rats (200-250 g) were used. The hippocampus taken from these animals was homogenized in 10 volumes of ice cold 50 mM TIUS buffer (pH 7.4). The homogenate was diluted 1:400 (w:v) in the same buffer to have a final protein concentration of about 200 μg/ml, filtered and incubated at 37° C. for 10 minutes before use.
Displacement experiments were performed by incubating the homogenate (980 μl) in the presence of [^3 H]-8-OH-DPAT (10 μl; 1.0-1.2 nM) and different concentrations of the test compounds dissolved in DMSO (10 μl), at 30° C. for 15 minutes (final volume: 1 ml). Nonspecific binding was determined in the presence of 10 μM 5-HT (10 μl). The reaction was stopped by rapid filtration through Inotech IH 201 filters using an Inotech Cell Harvester. The radioactivity was counted by liquid scintillation spectrometry.
(§1) The affinity values (Ki) for the compounds were obtained by a nonlinear least squares regression analysis on the basis of a one binding site model. The values were corrected on the basis of the radioligand occupancy on the receptors according to the equation: Ki =IC50 /(1+[C]/Kd), where [C] and Kd represent the concentration and the dissociation constant of the used radioligands ([^3 H]-8-OH-DPAT for the 5-HT1A binding, [^3 H]-Ketanserine for the 5-HT2A binding and [^3 H]-YM 09151-2) for the D4 binding, respectively).

The target of experiment [2] is T2, 5-HT2A receptor (Rattus norvegicus, UniProt P14842).
T2 construct: Cerebral cortex was homogenized in 10 volumes of ice cold 0.32 M sucrose; from tissue; host or cells: rat cerebral cortex (male Sprague-Dawley)
Briefly: 5-HT2A receptor binding, [3H]-Ketanserine displacement. The note with it: rat cortex tissue, read-out: K1 (nM) for 5-HT2A (Rat cortex tissue). The procedure:
Male Sprague-Dawley rats (200-250 g) were used. Cerebral cortex was homogenized in 10 volumes of ice cold 0.32 M sucrose. After the centrifugation of the homogenate (1,000×g for 10 minutes) the supernatant was then recentrifuged at 48,000×g for 15 minutes. The resulting pellet was suspended in 10 volumes of 50 mM TRIS buffer (pH 7.4), incubated at 37° C. for 10 minutes and recentrifuged at 48,000 × g for 15 minutes. The residue was then resuspended in 10 volumes of 50 mM TRIS buffer (pH 7.4).
The tissue was diluted 1:100 (w:v) in 50 mM TRIS buffer (pH 7.4) to have a final concentration of about 200 μg/ml. Displacement experiments were performed by incubating the homogenate (980 μl) in the presence of [^3 H]-Ketanserine (10 μl; 0.5-0.6 nM) and different concentrations of the test compounds dissolved in DMSO (10 μl) at 37° C. for 10 minutes (final volume: 1 ml). Nonspecific binding was determined in the presence of 100 μM Methysergide (10 μl). The reaction was stopped by rapid filtration through Inotech IH 201 filters using an Inotech Cell Harvester. The radioactivity was counted by liquid scintillation spectrometry.
as §1

Experiment [3] concerns the target T3, D4 receptor (Homo sapiens, UniProt P21917).
T3 construct: expressed in transfected cells; host or cells: CHO cells
T3 sequence (P21917 1-419): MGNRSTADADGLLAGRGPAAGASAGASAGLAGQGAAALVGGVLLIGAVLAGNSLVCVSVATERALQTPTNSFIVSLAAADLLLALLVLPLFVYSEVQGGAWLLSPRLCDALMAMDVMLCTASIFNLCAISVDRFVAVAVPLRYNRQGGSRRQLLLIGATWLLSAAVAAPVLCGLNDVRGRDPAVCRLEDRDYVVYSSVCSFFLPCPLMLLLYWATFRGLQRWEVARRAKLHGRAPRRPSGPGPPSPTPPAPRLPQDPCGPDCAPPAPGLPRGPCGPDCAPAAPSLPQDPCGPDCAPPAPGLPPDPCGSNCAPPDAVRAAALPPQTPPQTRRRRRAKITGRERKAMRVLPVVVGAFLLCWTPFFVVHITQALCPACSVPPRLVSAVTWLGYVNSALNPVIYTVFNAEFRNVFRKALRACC
Briefly: D4 receptor binding, [3H]-YM 09151-2 displacement. The conditions noted are these: CHO cell membranes, read-out: K1 (nM) for D4 (CHO cell membranes). The procedure: Cells were grown in monolayer at 37° C. in 95% air/5% CO2 in Dulbecco's Modified Eagle Medium (DMEM) supplemented with 7.5% (v/v) heat-inactivated fetal bovine serum (FBS), 2.5% (v/v) heat-inactivated horse serum donor herd, 2% of a stock solution containing 5000 I.U./ml penicillin and 5000 μg/ml streptomycin, 1% (v/v) of a solution MEM containing non-essential amino acid, 2 mM glutamine ind 200 μg/ml geneticin. Cells were passaged twice a week using a trypsin/EDTA solution and the split rate was 1:4. Cells were not subcultured more than 17 times.
Preparation of cell membranes:
The cells grown to confluence were washed twice with Dulbecco's PBS buffer and were detached adding VERSENE (PBS containing 0.2 g/l EDTA) for 10 minutes at 37° C. The cell suspension was centrifuged at 1,000 rpm for 10 minutes and the pellet was harvested in DMEM with 10% DMSO and stored at -80° C. Before use, cells were thawed, centrifuged at 1,000 rpm for 10 minutes and the pellet was resuspended in PBS. The cells were centrifuged again at 270×g for 10 minutes at 4° C. and the pellet was resuspended in a lysis buffer (10 mM Tris-HCl pH 7.4, 5 mM Na2 EDTA and protease inhibitors) and incubated for 30 minutes on ice. Cells were homogenized with an Ultra Turrax homogenizer. Unbroken cells and nuclei were removed by an initial centrifugation at 270×g for 10 minutes at 4° C. and crude membranes were collected from the supernatant by a 60 minute spin at 130,000×g. The pelleted membranes were resuspended in the same lysis buffer with 20 strokes by a Potter homogenizer. The final cell membrane suspension, corresponding to about 1×10^7 original cells/ml, was aliquoted and immediately frozen at -80° C.
D4 receptor binding studies were carried out in membranes from CHO cells prepared as above. The membranes were dilute in incubation buffer (50 ml/ TRIS-HCl pH 7.4, 5 mM MgCl2·6H2 O, 5 mM KCl, 1.5 mM CaCl2·2H2 O, 5 mM EDTA) according to their receptor density.
Displacement experiment were performed in 1000 μl total volume incubating the membranes (980 μl) in the presence of [^3 H]-YM 09151-2 (10 μl; 0.15-0.25 nM) and different concentrations of the test compounds dissolved in DMISO (10 μl) at 27° C. for two hours. Nonspecific binding was determined in the presence of 10 μM of Clozapine (10 μl). The reaction was stopped by rapid filtration through Inotech IH 201 filters (pre-soaked in 0.1% polyethyleneimine) using an Inotech Cell Harvester. The radioactivity was counted by liquid scintillation spectrometry.
as §1

SMILES strings stand for the structures. A value given as a limit tells only on which side of the number the result lay.

T2 sequence (P14842 whole entry): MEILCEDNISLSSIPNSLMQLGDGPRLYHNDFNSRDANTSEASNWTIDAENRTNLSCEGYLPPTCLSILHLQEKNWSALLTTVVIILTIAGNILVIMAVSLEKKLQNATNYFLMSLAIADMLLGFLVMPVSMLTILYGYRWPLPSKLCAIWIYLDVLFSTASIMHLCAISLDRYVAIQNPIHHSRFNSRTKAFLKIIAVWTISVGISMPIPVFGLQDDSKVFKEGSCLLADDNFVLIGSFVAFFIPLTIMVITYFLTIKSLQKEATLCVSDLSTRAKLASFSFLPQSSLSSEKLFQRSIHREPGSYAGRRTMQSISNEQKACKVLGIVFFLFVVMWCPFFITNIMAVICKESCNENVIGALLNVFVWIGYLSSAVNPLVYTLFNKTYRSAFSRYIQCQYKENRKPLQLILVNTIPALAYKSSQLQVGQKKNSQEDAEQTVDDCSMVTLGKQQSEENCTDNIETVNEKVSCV

For the compound `O=c1[nH]c2ccccc2n1CCN1CCN(c2cc(C(F)(F)F)ccc2O)CC1` [Compound 7, 1-{2-[4-(2-Hydroxy-5-trifluoromethylphenyl)piperazin-1-yl]ethyl}-1,3-dihydro-benzimidazol-2-one], the Ki in experiment [1] is more than 10000 nM; in experiment [2], 4440 nM.
Turning to `O=c1[nH]c2ccccc2n1CCN1CCN(c2ccc(O)c(C(F)(F)F)c2)CC1` [Compound 5, 1-{2-[4-(4-Hydroxy-3-trifluoromethylphenyl)piperazin-1-yl]ethyl}-1,3-dihydro-benzimidazol-2-one], the Ki in experiment [1] came out at 369 nM; in experiment [2] it was 705 nM; in experiment [3] it was 17.8 nM.
Turning to `O=c1[nH]c2ccccc2n1CCN1CCN(c2cc(O)cc(C(F)(F)F)c2)CC1` [Compound 6, 1-{2-[4-(3-Hydroxy-5-trifluoromethylphenyl)piperazin-1-yl]ethyl}-1,3-dihydro-benzimidazol-2-one], the Ki in experiment [1] came to 156 nM; in experiment [2], 328 nM; in experiment [3], 24.8 nM.
As to `O=c1[nH]c2cccc(O)c2n1CCN1CCN(c2cccc(C(F)(F)F)c2)CC1` [Compound 4, 7-Hydroxy-1-{2-[4-(3-trifluoromethylphenyl)piperazin-1-yl]ethyl}-1,3-dihydro-benzimidazol-2-one], the Ki in experiment [1] was found to be 1590 nM; in experiment [2], 23.8 nM; in experiment [3] it was 652 nM.
On to `O=c1[nH]c2cc(O)ccc2n1CCN1CCN(c2cccc(C(F)(F)F)c2)CC1` [Compound 1, 5-Hydroxy-1-{2-[4-(3-trifluoromethylphenyl)piperazin-1-yl]ethyl}-1,3-dihydro-benzimidazol-2-one], for which the figures for the Ki in experiment [1], in experiment [2] and in experiment [3] were 40.8 nM, 58.5 nM and 287 nM, respectively.
Regarding `O=c1[nH]c2c(O)cccc2n1CCN1CCN(c2cccc(C(F)(F)F)c2)CC1` [Compound 3, 4-Hydroxy-1-{2-[4-(3-trifluoromethylphenyl)piperazin-1-yl]ethyl}-1,3-dihydro-benzimidazol-2-one], the values for the Ki in experiment [1], in experiment [2] and in experiment [3] were 15.4 nM, 43.8 nM and 33.9 nM, respectively.
Regarding `O=c1[nH]c2ccc(O)cc2n1CCN1CCN(c2cccc(C(F)(F)F)c2)CC1` [Compound 2, 6-Hydroxy-1-{2-[4-(3-trifluoromethylphenyl)piperazin-1-yl]ethyl}-1,3-dihydro-benzimidazol-2-one], the figures for the Ki in experiment [1], in experiment [2] and in experiment [3] were 333 nM, 33.8 nM and 804 nM, respectively.
